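Five compound concentrations were applied to cells in 96-well plates for 48 hours; endpoints were derived by simple linear interpolation of the resulting dose-response curve. The concentration for full growth arrest is given as TGI.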
Columns and labels:
Test in all cases: NCI tumour cell line growth inhibition, 48 h
MALME-3M melanoma = system: MALME-3M melanoma
UACC-62 melanoma = system: UACC-62 melanoma
SF-295 CNS = system: SF-295 CNS
HOP-18 NSCLC = system: HOP-18 NSCLC
SR leukemia = system: SR leukemia
TK-10 renal = system: TK-10 renal
A498 renal = system: A498 renal
IGROV1 ovarian = system: IGROV1 ovarian
MCF7 breast = system: MCF7 breast
MDA-MB-435 = system: MDA-MB-435

Structure (SMILES)	TGI (MALME-3M melanoma) [µM]	TGI (UACC-62 melanoma) [µM]	TGI (SF-295 CNS) [µM]	TGI (HOP-18 NSCLC) [µM]	TGI (SR leukemia) [µM]	TGI (TK-10 renal) [µM]	TGI (A498 renal) [µM]	TGI (IGROV1 ovarian) [µM]	TGI (MCF7 breast) [µM]	TGI (MDA-MB-435) [µM]
CN/N=C(\C(=O)Nc1ccc([N+](=O)[O-])cc1[N+](=O)[O-])C1NC(=O)NC1=O (centres undefined)	> 100	> 100	> 100	> 100	> 100	> 100	> 100	> 100	–	–
CC(=O)Nc1ccc(/C=C(\NC(=O)c2ccccc2)C(=O)NNS(=O)(=O)c2ccc(C)cc2)cc1	> 100	> 100	> 100	> 100	37.8	> 100	–	> 100	–	–
CC(=O)[C@H]1CCC2[C@@H]3CC=C4C(O)C(OS(=O)(=O)O)CC[C@]4(C)C3CC[C@@]21C (some centres undefined)	> 100	> 100	> 100	> 100	–	–	> 100	> 100	> 100	–
C=C1CC(OC)(C(O)C(=O)N[C@H]2OCO[C@H]3C2O[C@H](C[C@H](O)COC)C(C)(C)C3OC)O[C@H](C)[C@@H]1C (some centres undefined)	–	> 0.00772	> 0.00772	> 0.00772	–	–	> 0.00772	> 0.00772	> 0.00772	–
O=C1OC(c2ccccc2)=N/C1=C/N1CCCC1C(=O)O (centres undefined)	> 100	> 100	> 100	> 100	–	> 100	> 100	> 100	–	–
c1ccc(COc2cccc3cccnc23)cc1	> 100	> 100	> 100	> 100	–	> 100	–	> 100	–	–
Nc1ccc(-c2nc3ccccc3s2)cc1	45	38.6	> 74.9	> 100	62.2	42.3	65	48.7	39.4	32.1
COc1cc(C2(C)SCCCS2)c(I)c(OC)c1OC	> 100	> 100	> 100	> 100	> 100	> 100	> 100	> 100	–	–
CN(C)c1ccc(/C=C2\C[C@H]3[C@@H]4CCc5cc(O)ccc5[C@H]4CC[C@]3(C)C2=O)cc1	> 100	86.1	> 100	–	> 100	> 100	> 100	> 100	> 100	> 100
CCOC(=O)C[n+]1ccc2c([nH]c3cc(OC)ccc32)c1C	> 100	> 100	> 100	> 100	–	–	> 100	> 100	> 100	–
N#Cc1c(-c2ccc(Cl)cc2)cc(-c2nc3ccccc3[nH]2)nc1N	32.5	21.2	49.1	–	35.1	27.3	22.6	22.2	20.1	18.8
COc1ccc(C2NC(=O)Nc3c2c(=O)oc2c3ccc3ccccc32)cc1 (centres undefined)	> 100	> 100	> 100	–	> 100	> 100	> 100	> 100	> 100	> 100
COc1ccc(C2=NNC(=O)c3ccccc3N2c2nc(-c3cccs3)nc3ccc(Br)cc23)cc1	75.9	> 100	55.1	–	> 100	72.8	> 100	> 100	> 100	> 100
C/C(=C\c1ccccc1)C(=O)NCc1ccc(C(=O)NCCc2c[nH]c3ccccc23)cc1	> 100	53.7	> 100	–	> 100	> 100	> 100	> 100	> 100	> 100
CC(C)c1nccn1Cc1ccc(Cl)cc1Cl	> 100	> 100	> 100	–	> 100	> 100	> 100	> 100	> 100	> 100
O=C(O)CCCc1ccc2c(c1)CC1(C2)Cc2ccc(CCCC(=O)O)cc2C1	> 100	> 100	> 100	–	> 100	> 100	> 100	> 100	> 100	> 100

From PubChem BioAssay (NCI)
